Assay results taken from publication PMC8201443 (Journal of Medicinal Chemistry, 2021).
Entries after “also recorded” stand apart in the source; their conditions may differ. Like-named read-outs stand apart in the source and are kept apart here.

Experiments:
MV4-11 cells [1] = assay: Cell viability; type: cell-based, human; conditions: for activity in cells (in words): cellular assays of Table 2; for EC50: Homo sapiens
[2] = test system: MV4-11, MHH-CALL-4, HD-MB03, MB002 and MB004 cells; type: cell-based, human
[3] = Liver microsomes stability assay, human; type: in vitro ADME; conditions: pooled liver microsomes, pH 7.4
[4] = Liver microsomes stability assay, mouse; type: in vitro ADME; conditions: CD-1, mouse, pH 7.4
IKZF1 [5] = target: T1, IKZF1 (Homo sapiens, UniProt Q13422); conditions: for IKZF1 protein levels in GSPT1(G575N) mutant cell line (in words): MV4-11 GSPT1(G575N)-FLAG cells, 24 h; for IKZF1 degradation after 4 h (in words): MV4-11 cells, any concentration tested
IKZF1(ZF2)-CRBN/DDB1 = IKZF1(ZF2)-CRBN/DDB1 (Homo sapiens, UniProt Q96SW2); assay: AlphaScreen assay, IKZF1; type: biochemical; conditions: dose response up to highest concentration
MV4-11 cells [6] = assay: TMT quantitative proteomics in MV4-11 cells; type: cell-based, human; conditions: 1 μM, 4 h
[7] = test system: CRBN knockout MV4-11 cells; assay: Cell viability, wild-type vs CRBN knockout MV4-11 cells; type: cell-based, human; conditions: 3 days
IKZF1 [8] = target: T1, IKZF1; assay: Immunoblot, IKZF1 degradation in MHH-CALL-4 cells; type: cell-based; conditions: any concentration tested
[9] = test system: MV4-11 cells stably expressing GSPT1(G575N)-FLAG; type: cell-based, human
caspase 3/7 = assay: Caspase-Glo 3/7 activity assay in MV4-11 cells; type: cell-based, human; conditions: MV4-11, 10 and 100 nM; timepoints 4, 8 and 24 h
GSPT1(G575N) = GSPT1(G575N) (Homo sapiens, UniProt P15170, G437N); type: cell-based
MV4-11 cells [10] = assay: Lenalidomide competition assay, MV4-11 viability; type: cell-based, human; conditions: MV4-11, co-treatment with 10 μM lenalidomide, 3 days
MB002 cells = assay: Cell viability; type: cell-based; conditions: Homo sapiens, MB002, 72 h, read-out: EC50 (nM) MB002
GSPT1 = GSPT1 (Homo sapiens, UniProt P15170+Q96SW2); assay: Immunoblot, GSPT1 degradation in MV4-11 cells; type: cell-based; conditions: MV4-11, 4 h
[11] = more potent than lenalidomide; cited from earlier work
hGSPT1-HiBit = hGSPT1-HiBit (Homo sapiens, UniProt P15170+Q96SW2); assay: hGSPT1 HiBiT assay in HEK293 cells; type: cell-based; conditions: SAR discussion of Table 2
Sequence of hGSPT1-HiBit (P15170 1-637 isoform P15170-3): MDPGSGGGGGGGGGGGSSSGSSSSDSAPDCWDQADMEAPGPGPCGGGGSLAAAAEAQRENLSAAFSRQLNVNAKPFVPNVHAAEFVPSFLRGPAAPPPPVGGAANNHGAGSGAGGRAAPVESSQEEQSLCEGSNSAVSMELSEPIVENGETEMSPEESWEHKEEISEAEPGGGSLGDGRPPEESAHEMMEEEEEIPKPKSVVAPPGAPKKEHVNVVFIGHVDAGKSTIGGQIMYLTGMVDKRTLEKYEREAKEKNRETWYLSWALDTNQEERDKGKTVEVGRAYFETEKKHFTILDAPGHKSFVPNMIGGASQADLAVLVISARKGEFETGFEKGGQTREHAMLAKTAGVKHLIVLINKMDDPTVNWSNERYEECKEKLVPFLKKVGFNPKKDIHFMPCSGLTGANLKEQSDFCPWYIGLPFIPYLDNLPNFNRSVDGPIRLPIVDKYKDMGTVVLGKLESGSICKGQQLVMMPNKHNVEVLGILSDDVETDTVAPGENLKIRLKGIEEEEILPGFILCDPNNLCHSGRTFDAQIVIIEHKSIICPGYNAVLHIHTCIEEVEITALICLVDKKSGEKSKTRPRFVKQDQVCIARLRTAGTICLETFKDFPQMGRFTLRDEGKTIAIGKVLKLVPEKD
Sequence of hGSPT1-HiBit (Q96SW2 whole entry): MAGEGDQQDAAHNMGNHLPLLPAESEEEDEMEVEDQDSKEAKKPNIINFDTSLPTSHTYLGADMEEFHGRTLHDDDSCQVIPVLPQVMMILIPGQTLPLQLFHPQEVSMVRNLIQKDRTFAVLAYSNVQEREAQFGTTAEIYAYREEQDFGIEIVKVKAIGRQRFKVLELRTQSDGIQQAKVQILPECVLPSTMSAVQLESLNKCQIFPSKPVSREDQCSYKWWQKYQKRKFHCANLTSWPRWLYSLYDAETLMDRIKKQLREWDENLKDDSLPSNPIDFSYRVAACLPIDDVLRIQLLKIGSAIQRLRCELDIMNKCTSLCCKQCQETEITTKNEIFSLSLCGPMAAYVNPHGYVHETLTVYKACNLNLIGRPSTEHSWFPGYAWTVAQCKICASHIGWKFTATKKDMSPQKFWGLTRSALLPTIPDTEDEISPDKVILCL
Sequence of hGSPT1-HiBit (Q16531 whole entry partner): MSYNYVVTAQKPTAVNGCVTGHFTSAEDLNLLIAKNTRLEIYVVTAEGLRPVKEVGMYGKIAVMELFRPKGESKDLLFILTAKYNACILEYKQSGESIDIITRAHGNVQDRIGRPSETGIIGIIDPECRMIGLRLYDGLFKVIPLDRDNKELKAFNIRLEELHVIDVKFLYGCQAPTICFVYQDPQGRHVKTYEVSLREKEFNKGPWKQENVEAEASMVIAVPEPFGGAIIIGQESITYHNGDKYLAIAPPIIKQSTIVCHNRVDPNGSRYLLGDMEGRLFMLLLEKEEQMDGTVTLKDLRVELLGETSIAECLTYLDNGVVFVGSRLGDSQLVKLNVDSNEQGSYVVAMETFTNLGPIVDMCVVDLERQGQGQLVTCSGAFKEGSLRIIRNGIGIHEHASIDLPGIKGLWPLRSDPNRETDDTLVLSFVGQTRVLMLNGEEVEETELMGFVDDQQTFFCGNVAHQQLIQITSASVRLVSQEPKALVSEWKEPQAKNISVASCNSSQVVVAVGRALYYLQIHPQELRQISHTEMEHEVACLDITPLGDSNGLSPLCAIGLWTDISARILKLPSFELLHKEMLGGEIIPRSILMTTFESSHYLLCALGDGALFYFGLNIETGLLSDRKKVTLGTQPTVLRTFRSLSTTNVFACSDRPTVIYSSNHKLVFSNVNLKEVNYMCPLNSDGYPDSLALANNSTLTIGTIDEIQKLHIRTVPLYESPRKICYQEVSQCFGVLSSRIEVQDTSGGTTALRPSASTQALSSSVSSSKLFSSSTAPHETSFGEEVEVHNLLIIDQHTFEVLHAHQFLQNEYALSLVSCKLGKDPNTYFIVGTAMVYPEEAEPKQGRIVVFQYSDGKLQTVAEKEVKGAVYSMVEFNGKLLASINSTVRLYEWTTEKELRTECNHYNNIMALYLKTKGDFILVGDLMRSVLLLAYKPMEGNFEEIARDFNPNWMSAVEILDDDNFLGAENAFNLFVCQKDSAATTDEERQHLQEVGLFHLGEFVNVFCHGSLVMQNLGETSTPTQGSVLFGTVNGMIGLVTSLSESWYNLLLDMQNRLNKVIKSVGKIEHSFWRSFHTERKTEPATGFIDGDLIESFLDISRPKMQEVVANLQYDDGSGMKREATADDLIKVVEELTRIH

Sequence of IKZF1(ZF2)-CRBN/DDB1 (Q96SW2 40-442 limits assumed): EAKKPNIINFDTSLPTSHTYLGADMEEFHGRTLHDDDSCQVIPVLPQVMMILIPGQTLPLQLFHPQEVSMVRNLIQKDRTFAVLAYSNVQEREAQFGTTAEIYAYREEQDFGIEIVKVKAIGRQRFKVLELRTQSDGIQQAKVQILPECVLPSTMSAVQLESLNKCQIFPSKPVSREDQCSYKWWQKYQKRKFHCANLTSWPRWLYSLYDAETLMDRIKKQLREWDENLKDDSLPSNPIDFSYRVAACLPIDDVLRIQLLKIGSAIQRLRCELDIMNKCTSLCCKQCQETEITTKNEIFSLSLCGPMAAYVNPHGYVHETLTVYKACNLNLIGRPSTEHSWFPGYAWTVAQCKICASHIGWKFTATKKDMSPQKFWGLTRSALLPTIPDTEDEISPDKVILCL
Sequence of IKZF1(ZF2)-CRBN/DDB1 (Q16531 whole entry partner): as the sequence (Q16531 whole entry partner) above
T1 sequence (Q96SW2 whole entry partner): as the sequence (Q96SW2 whole entry) above
T1 sequence (Q16531 whole entry partner): as the sequence (Q16531 whole entry partner) above
T1 sequence (Q13422 whole entry): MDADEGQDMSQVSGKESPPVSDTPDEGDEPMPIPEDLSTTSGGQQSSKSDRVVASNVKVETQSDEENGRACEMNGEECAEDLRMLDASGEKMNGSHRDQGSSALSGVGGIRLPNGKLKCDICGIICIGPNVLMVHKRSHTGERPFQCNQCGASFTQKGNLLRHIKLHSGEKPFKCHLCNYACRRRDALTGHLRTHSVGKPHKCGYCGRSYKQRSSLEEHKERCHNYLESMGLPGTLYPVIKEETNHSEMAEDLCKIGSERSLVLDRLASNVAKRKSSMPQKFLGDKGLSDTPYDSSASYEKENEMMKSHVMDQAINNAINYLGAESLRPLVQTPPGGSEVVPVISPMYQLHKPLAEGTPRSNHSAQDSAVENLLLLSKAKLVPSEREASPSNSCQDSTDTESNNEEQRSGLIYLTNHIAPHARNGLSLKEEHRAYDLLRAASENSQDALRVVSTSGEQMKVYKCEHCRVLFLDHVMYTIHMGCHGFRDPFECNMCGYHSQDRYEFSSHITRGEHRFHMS
Sequence of GSPT1(G575N) (Q96SW2 whole entry partner): as the sequence (Q96SW2 whole entry) above
Sequence of GSPT1(G575N) (Q16531 whole entry partner): as the sequence (Q16531 whole entry partner) above
Sequence of GSPT1(G575N) (P15170 1-637 isoform P15170-3 G575N): as the sequence (P15170 1-637 isoform P15170-3) above, with G575N counted along it
Sequence of GSPT1 (P15170 1-637 isoform P15170-3): as the sequence (P15170 1-637 isoform P15170-3) above
Sequence of GSPT1 (Q96SW2 whole entry): as the sequence (Q96SW2 whole entry) above
Sequence of GSPT1 (Q16531 whole entry partner): as the sequence (Q16531 whole entry partner) above

SMILES: O=C1CCC(N2C(=O)c3ccc(NS(=O)(=O)c4ccccc4)cc3C2=O)C(=O)N1 (stereo not shown) [compound 8, N-(2-(2,6-Dioxopiperidin-3-yl)-1,3-dioxoisoindolin-5-yl)benzenesulfonamide]
- activity in cells (in words) (MV4-11 cells [1]): inactive

SMILES: Cc1ccc(NC(=O)NCc2ccc3c(c2)CN(C2CCC(=O)NC2=O)C3=O)cc1Cl (stereo not shown) [CC-885]
- antiproliferative effect across the five cell lines (in words) [2]: displayed antiproliferative effects in all five cell lines

SMILES: O=C1CCC(N2C(=O)c3ccc(NS(=O)(=O)c4ccccc4OC(F)(F)F)cc3C2=O)C(=O)N1 (stereo not shown) [compound 6, N-(2-(2,6-Dioxopiperidin-3-yl)-1,3-dioxoisoindolin-5-yl)-2-(trifluoromethoxy)benzenesulfonamide]
- activity in cells (in words) (MV4-11 cells [1]): most potent compound in the series
- CLint scaled at 4 h, 10 µM [3]: 4 mL/min/kg
- CLint scaled at 4 h, 10 µM [4]: 12 mL/min/kg
- IKZF1 protein levels in GSPT1(G575N) mutant cell line (in words) (IKZF1 [5]): unaffected
- IKZF1 degradation after 4 h (in words) (IKZF1 [5]): did not significantly degrade IKZF1
- IKZF1(ZF2)-CRBN/DDB1 complex formation, AlphaScreen signal (in words) (IKZF1(ZF2)-CRBN/DDB1): neither 6 nor 7 showed a signal; also recorded: showed no effect even at the highest concentration
- abundance of CNTNAP4 and SERPINF1 (in words) (MV4-11 cells [6]): less pronounced but statistically significant reductions
- abundance of IMiD neosubstrates IKZF1/3 and CK1α (in words) (MV4-11 cells [6]): not affected
- proteins most reduced in abundance (in words) (MV4-11 cells [6]; 8927 quantified proteins): reduced most potently and selectively abundance of GSPT1 and GSPT2
- antiproliferative activity in the absence of CRBN (in words) [7]: abolished
- IKZF1 degradation after 4 h (in words) (IKZF1 [8]): did not significantly degrade IKZF1
- antiproliferation effect in cells expressing GSPT1(G575N) (in words) [9]: completely abrogated
- antiproliferative effect across the five cell lines (in words) [2]: demonstrated antiproliferative activities across the panel
- timepoint at which caspase activation was observed (caspase 3/7): 8 h
- degradation of GSPT1(G575N) mutant (in words) (GSPT1(G575N)): not degraded
- antiproliferative effect in the presence of lenalidomide (in words) (MV4-11 cells [10]): abrogating the antiproliferative effects
- EC50 (MB002 cells): 726 nM

SMILES: Nc1cccc2c1CN(C1CCC(=O)NC1=O)C2=O (stereo not shown) [lenalidomide]
- antiproliferative effect across the five cell lines (in words) [2]: insensitive

SMILES: O=C1CCC(N2C(=O)c3ccc(NS(=O)(=O)c4cccc(OC(F)(F)F)c4)cc3C2=O)C(=O)N1 (stereo not shown) [compound 10, N-(2-(2,6-Dioxopiperidin-3-yl)-1,3-dioxoisoindolin-5-yl)-3-(trifluoromethoxy)benzenesulfonamide]
- activity in cells (in words) (MV4-11 cells [1]): no activity in cells
- effect on IKZF1 protein level (in words) (IKZF1 [5]; immunoblot, MV4-11, 4 h): no effects on the protein levels
- effect on GSPT1 protein level (in words) (GSPT1): no effects on the protein levels

SMILES: O=C1CC[C@H](N2Cc3c(OCc4ccc(CN5CCOCC5)cc4)cccc3C2=O)C(=O)N1 [CC-220, reference compound]
- IKZF1(ZF2)-CRBN/DDB1 complex formation, AlphaScreen signal (in words) (IKZF1(ZF2)-CRBN/DDB1): strong dose response; also recorded: dose-dependent AlphaScreen signal
- potency in cells relative to lenalidomide [11]: 10 fold

SMILES: Cc1ccccc1S(=O)(=O)Nc1ccc2c(c1)C(=O)N(C1CCC(=O)NC1=O)C2=O (stereo not shown) [compound 13, N-(2-(2,6-Dioxopiperidin-3-yl)-1,3-dioxoisoindolin-5-yl)-2-methylbenzenesulfonamide]
- activity in cells (in words) (MV4-11 cells [1]): lack of potent cell activity

SMILES: Cc1ccc(S(=O)(=O)Nc2ccc3c(c2)C(=O)N(C2CCC(=O)NC2=O)C3=O)cc1Cl (stereo not shown) [compound 9, 3-Chloro-N-(2-(2,6-dioxopiperidin-3-yl)-1,3-dioxoisoindolin-5-yl)-4-methylbenzenesulfonamide]
- activity in cells (in words) (MV4-11 cells [1]): no effect in cellular assays

SMILES: Nc1cccc2c1C(=O)N(C1CCC(=O)NC1=O)C2=O (stereo not shown) [pomalidomide]
- antiproliferative effect across the five cell lines (in words) [2]: insensitive

SMILES: Cc1c(Cl)cccc1S(=O)(=O)Nc1ccc2c(c1)C(=O)N(C1CCC(=O)NC1=O)C2=O (stereo not shown) [compound 7, 3-Chloro-N-(2-(2,6-dioxopiperidin-3-yl)-1,3-dioxoisoindolin-5-yl)-2-methylbenzenesulfonamide]
- EC50 (MV4-11 cells [1]; MV4-11, 72 h, read-out: EC50 (nM) MV4-11): 52 nM
- EC50 (MV4-11 cells [1]; MV4-11, read-out: MV4-11 EC50 (μM)): 52 nM
- IKZF1 protein levels in GSPT1(G575N) mutant cell line (in words) (IKZF1 [5]): unaffected
- IKZF1 degradation after 4 h (in words) (IKZF1 [5]): did not significantly degrade IKZF1
- IKZF1(ZF2)-CRBN/DDB1 complex formation, AlphaScreen signal (in words) (IKZF1(ZF2)-CRBN/DDB1): neither 6 nor 7 showed a signal; also recorded: showed no effect even at the highest concentration
- antiproliferative activity in the absence of CRBN (in words) [7]: abolished
- IKZF1 degradation after 4 h (in words) (IKZF1 [8]): did not significantly degrade IKZF1
- antiproliferation effect in cells expressing GSPT1(G575N) (in words) [9]: completely abrogated
- antiproliferative effect across the five cell lines (in words) [2]: demonstrated antiproliferative activities across the panel
- timepoint at which caspase activation was observed (caspase 3/7): 24 h
- degradation of GSPT1(G575N) mutant (in words) (GSPT1(G575N)): not degraded
- antiproliferative effect in the presence of lenalidomide (in words) (MV4-11 cells [10]): abrogating the antiproliferative effects
- EC50 (MB002 cells): 5010 nM

SMILES: O=C1CCC(N2C(=O)c3ccc(NS(=O)(=O)c4ccc(OC(F)(F)F)cc4)cc3C2=O)C(=O)N1 (stereo not shown) [compound 11, N-(2-(2,6-Dioxopiperidin-3-yl)-1,3-dioxoisoindolin-5-yl)-4-(trifluoromethoxy)benzenesulfonamide]
- activity in cells (in words) (MV4-11 cells [1]): no activity in cells

SMILES: COc1ccccc1S(=O)(=O)Nc1ccc2c(c1)C(=O)N(C1CCC(=O)NC1=O)C2=O (stereo not shown) [compound 12, N-(2-(2,6-Dioxopiperidin-3-yl)-1,3-dioxoisoindolin-5-yl)-2-methoxybenzenesulfonamide]
- activity in cells (in words) (MV4-11 cells [1]): inactive in cells

SMILES: O=C1CCC(N2C(=O)c3ccc(NS(=O)(=O)c4ccccc4C(F)(F)F)cc3C2=O)C(=O)N1 (stereo not shown) [compound 14, N-(2-(2,6-Dioxopiperidin-3-yl)-1,3-dioxoisoindolin-5-yl)-2-(trifluoromethyl)benzenesulfonamide]
- GSPT1 degradation (in words) (hGSPT1-HiBit): potent degrader of GSPT1

SMILES: O=C1CCC(N2C(=O)c3ccc(NS(=O)(=O)c4cccc(Cl)c4)cc3C2=O)C(=O)N1 (stereo not shown) [compound 15, 3-Chloro-N-(2-(2,6-dioxopiperidin-3-yl)-1,3-dioxoisoindolin-5-yl)benzenesulfonamide]
- activity in cells (in words) (MV4-11 cells [1]): lack of potent cell activity

SMILES: O=C1CCC(N2C(=O)c3ccccc3C2=O)C(=O)N1 (stereo not shown) [thalidomide]
- antiproliferative effect across the five cell lines (in words) [2]: insensitive
